Reference: patent US20230278983A1, “INDOLE DERIVATIVES AND USES THEREOF FOR TREATING A CANCER” (Universite Claude Bernard Lyon 1, priority 2020, published 2023)
pIC50: −log10 of the molar value.

These compounds were tested against CK2 (Homo sapiens (Human), UniProt P68400) (assay: Radiometric CK2 kinase assay). Details: not given.
Type: biochemical

Sequence of CK2 (P68400 whole entry): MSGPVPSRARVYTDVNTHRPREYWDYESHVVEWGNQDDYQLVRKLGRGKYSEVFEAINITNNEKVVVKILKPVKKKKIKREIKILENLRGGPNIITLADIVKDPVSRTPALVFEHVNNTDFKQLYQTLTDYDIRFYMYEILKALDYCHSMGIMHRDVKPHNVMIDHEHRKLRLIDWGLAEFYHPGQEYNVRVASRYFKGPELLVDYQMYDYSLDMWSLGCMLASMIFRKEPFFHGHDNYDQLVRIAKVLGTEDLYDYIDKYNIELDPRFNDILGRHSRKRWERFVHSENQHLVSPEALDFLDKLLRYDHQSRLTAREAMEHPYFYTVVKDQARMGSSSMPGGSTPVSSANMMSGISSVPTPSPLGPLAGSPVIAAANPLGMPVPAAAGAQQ

Row | SMILES | pIC50 | Competition with peptide substrate
1 | Cc1noc(C)c1-c1ccc(S(=O)(=O)NCCN2CCC(Cn3cc(-c4c(C(=O)OCC(C)C)[nH]c5ccc(F)cc45)nn3)CC2)cc1 [AB1130, isobutyl 3-(1-((1-(2-((4-(3,5-dimethylisoxazol-4-yl)phenyl)sulfonamido)ethyl)piperidin-4-yl)methyl)-1H-1,2,3-triazol-4-yl)-5-fluoro-1H-indole-2-carboxylate] | 7.31 | 
2 | CC(C)COC(=O)c1[nH]c2ccc(F)cc2c1-c1cn(CC2CCN(CCNS(=O)(=O)c3ccc(-c4ccccc4)cc3)CC2)nn1 [AB913, isobutyl 3-(1-((1-(2-([1,1′-biphenyl]-4-sulfonamido)ethyl)piperidin-4-yl)methyl)-1H-1,2,3-triazol-4-yl)-5-fluoro-1H-indole-2-carboxylate] | 7.10 | 
3 | CC(C)COC(=O)c1[nH]c2ccc(F)cc2c1-c1cn(CC2CCN(CCNS(=O)(=O)c3ccc(C(C)C)cc3)CC2)nn1 [AB603, Isobutyl 5-fluoro-3-(1-((1-(2-((4-isopropylphenyl)sulfonamido)ethyl)piperidin-4-yl)methyl)-1H-1,2,3-triazol-4-yl)-1H-indole-2-carboxylate] | 6.82 | not competitive with the peptide substrate
4 | CC(=O)c1[nH]c2ccc(F)cc2c1-c1cn(CC2CCN(CCNS(=O)(=O)c3ccc(CC4CC4)cc3)CC2)nn1 [AB1317, N-(2-(4-((4-(2-acetyl-5-fluoro-1H-indol-3-yl)-1H-1,2,3-triazol-1-yl)methyl)piperidin-1-yl)ethyl)-4-(cyclopropylmethyl)benzenesulfonamide] | 6.51 | 
5 | CCOC(=O)c1[nH]c2ccc(Cl)cc2c1-c1cn(CC2CCN(CCNS(=O)(=O)c3ccc4ccccc4c3)CC2)nn1 [AB551, Ethyl 5-chloro-3-(1-((1-(2-(naphthalene-2-sulfonamido)ethyl)piperidin-4-yl)methyl)-111-1,2,3-triazol-4-yl)-1H-indole-2-carboxylate] | 5.75 | 
6 | CCCCC(=O)c1[nH]c2ccc(F)cc2c1-c1cn(CC2CCN(CCNS(=O)(=O)c3ccc(CC(C)C)cc3)CC2)nn1 [AB1145, N-(2-(4-((4-(5-fluoro-2-pentanoyl-1H-indol-3-yl)-1H-1,2,3-triazol-1-yl)methyl)piperidin-1-yl)ethyl)-4-isobutylbenzenesulfonamide] | 6.89 | 
7 | CC(C)COC(=O)c1[nH]c2ccc(F)cc2c1-c1cn(CC2CCN(CCNS(=O)(=O)c3ccc(-c4c(F)cccc4F)cc3)CC2)nn1 [AB1208, isobutyl 3-(1-((1-(2-((2′,6′-difluoro-[1,1′-biphenyl])-4-sulfonamido)ethyl)piperidin-4-yl)methyl)-1H-1,2,3-triazol-4-yl)-5-fluoro-1H-indole-2-carboxylate] | 7.35 | 
8 | CC(C)COC(=O)c1[nH]c2ccc(F)cc2c1-c1cn(CC2CCN(CCNS(=O)(=O)c3ccc(-c4cccnc4Cl)cc3)CC2)nn1 [AB1133, isobutyl 3-(1-((1-(2-((4-(2-chloropyridin-3-yl)phenyl)sulfonamido)ethyl)piperidin-4-yl)methyl)-1H-1,2,3-triazol-4-yl)-5-fluoro-1H-indole-2-carboxylate] | 7.59 | 
9 | CCOC(=O)c1[nH]c2cc(Cl)ccc2c1-c1cn(CC2CCN(CCNS(=O)(=O)c3ccc(C)cc3)CC2)nn1 [AB503, Ethyl 6-chloro-3-(1-((1-(2-((4-methylphenyl)sulfonamido)ethyl)piperidin-4-yl)methyl)-1H-1,2,3-triazol-4-yl)-1H-indole-2-carboxylate] | 5.01 | 
10 | CCOC(=O)c1[nH]c2ccc(Cl)cc2c1-c1cn(CC2CCN(CCNS(=O)(=O)c3ccc(CC)cc3)CC2)nn1 [AB543, Ethyl 5-chloro-3-(1-((1-(2-((4-ethylphenyl)sulfonamido)ethyl)piperidin-4-yl)methyl)-1H-1,2,3-triazol-4-yl)-1H-indole-2-carboxylate] | 6.03 | 
11 | CC(C)COC(=O)c1[nH]c2ccc(F)cc2c1-c1cn(CC2CCN(CCNS(=O)(=O)c3ccc(C4=CCC(F)(F)CC4)cc3)CC2)nn1 [AB1070, isobutyl 3-(1-((1-(2-((4′,4′-difluoro-2′,3′,4′,5′-tetrahydro-[1,1′-biphenyl])-4-sulfonamido)ethyl)piperidin-4-yl)methyl)-1H-1,2,3-triazol-4-yl)-5-fluoro-1H-indole-2-carboxylate] | 6.70 | 
12 | CC(=O)c1[nH]c2ccc(F)cc2c1-c1cn(CC2CCN(CCNS(=O)(=O)c3ccc(-c4ccccc4C(F)(F)F)cc3)CC2)nn1 [AB1394, N-(2-(4-((4-(2-acetyl-5-fluoro-1H-indol-3-yl)-1H-1,2,3-triazol-1-yl)methyl)piperidin-1-yl)ethyl)-2′-(trifluoromethyl)-[1,1′-biphenyl]-4-sulfonamide] | 7.64 | 
13 | CCc1ccc(S(=O)(=O)NCCN2CCC(Cn3cc(-c4c(C(=O)OCCO)[nH]c5ccc(F)cc45)nn3)CC2)cc1 [AB597, 2-Hydroxyethyl 3-(1-((1-(2-((4-ethylphenyl)sulfonamido)ethyl)piperidin-4 yl)methyl)-1H-1,2,3-triazol-4-yl)-5-fluoro-1H-indole-2-carboxylate] | 5.80 | 

Same assay, conditions: CK2a compared with CK2 holoenzyme

Row | SMILES | Inhibition of CK2a versus CK2 holoenzyme
14 | CC(C)COC(=O)c1[nH]c2ccc(F)cc2c1-c1cn(CC2CCN(CCNS(=O)(=O)c3ccc(C(C)C)cc3)CC2)nn1 [AB603, Isobutyl 5-fluoro-3-(1-((1-(2-((4-isopropylphenyl)sulfonamido)ethyl)piperidin-4-yl)methyl)-1H-1,2,3-triazol-4-yl)-1H-indole-2-carboxylate] | not inhibited to the same extent

Same assay, conditions: compound at 0.05 μM; ATP 10 μM

Row | SMILES | inhibition at 0.05 µM
15 | CC(C)COC(=O)c1[nH]c2ccc(F)cc2c1-c1cn(CC2CCN(CCNS(=O)(=O)c3ccc(-c4cccnc4F)cc3)CC2)nn1 [AB1207, isobutyl 5-fluoro-3-(1-((1-(2-((4-(2-fluoropyridin-3-yl)phenyl)sulfonamido)ethyl)piperidin-4-yl)methyl)-1H-1,2,3-triazol-4-yl)-1H-indole-2-carboxylate] | 61%

Same assay, conditions: compound at 0.10 μM; ATP 10 μM

Row | SMILES | inhibition at 0.1 µM
16 | CCC(C)C(=O)c1[nH]c2ccc(F)cc2c1-c1cn(CC2CCN(CCNS(=O)(=O)c3ccc(CC(C)C)cc3)CC2)nn1 (centres unmarked) [AB1302, N-(2-(4-((4-(5-fluoro-2-(2-methylbutanoyl)-1H-indol-3-yl)-1H-1,2,3-triazol-1-yl)methyl)piperidin-1-yl)ethyl)-4-isobutylbenzenesulfonamide] | 10%
17 | O=S(=O)(NCCN1CCC(Cn2cc(-c3c(CO)[nH]c4ccc(F)cc34)nn2)CC1)c1ccc(-c2c(O)cccc2F)cc1 [AB1406, 2′-fluoro-N-(2-(4-((4-(5-fluoro-2-(hydroxymethyl)-1H-indol-3-yl)-1H-1,2,3-triazol-1-yl)methyl)piperidin-1-yl)ethyl)-6′-hydroxy-[1,1′-biphenyl]-4-sulfonamide] | 29%
18 | CC(C)Cc1ccc(S(=O)(=O)NCCN2CCC(Cn3cc(-c4c(C(=O)N5CCOCC5)[nH]c5ccc(F)cc45)nn3)CC2)cc1 [AB1132, N-(2-(4-((4-(5-fluoro-2-(morpholine-4-carbonyl)-1H-indol-3-yl)-1H-1,2,3-triazol-1-yl)methyl)piperidin-1-yl)ethyl)-4-isobutylbenzenesulfonamide] | 4%

Same assay, conditions: compound at 1 μM; ATP 10 μM

Row | SMILES | inhibition at 1 µM
19 | CC(C)COC(=O)c1[nH]c2ccc(F)cc2c1-c1cn(CC2CCN(S(=O)(=O)N3CCN(Cc4ccccc4)CC3)CC2)nn1 [AB755] | 56%
20 | CCc1ccc(S(=O)(=O)NCCN2CCC(Cn3cc(-c4c(C(=O)NCC(C)C)[nH]c5ccc(F)cc45)nn3)CC2)cc1 [AB651, 3-(1-((1-(2-((4-Ethylphenyl)sulfonamido)ethyl)piperidin-4-yl)methyl)-111-1,2,3-triazol-4-yl)-5-fluoro-N-isobutyl-1H-indole-2-carboxamide] | 5%

Same assay, conditions: inhibition of CK2 activity; ATP 10 μM

Row | SMILES | pIC50
21 | CC(C)COC(=O)c1[nH]c2ccc(F)cc2c1-c1cn(CC2CCN(CCNS(=O)(=O)c3ccc(-c4c(O)cccc4F)cc3)CC2)nn1 [AB1402, isobutyl 5-fluoro-3-(1-((1-(2-((2′-fluoro-6′-hydroxy-[1,1′-biphenyl])-4-sulfonamido)ethyl)piperidin-4-yl)methyl)-1H-1,2,3-triazol-4-yl)-1H-indole-2-carboxylate] | 7.35
22 | CC(C)COC(=O)c1[nH]c2ccc(F)cc2c1-c1cn(CC2CCN(CCNS(=O)(=O)c3ccc(Oc4ccccc4)cc3)CC2)nn1 [AB933, isobutyl 5-fluoro-3-(1-((1-(2-((4-phenoxyphenyl)sulfonamido)ethyl)piperidin-4-yl)methyl)-1H-1,2,3-triazol-4-yl)-1H-indole-2-carboxylate] | 7.21
23 | CC(=O)c1[nH]c2ccc(F)cc2c1-c1cn(CC2CCN(CCNS(=O)(=O)c3ccc(-c4cccnc4F)cc3)CC2)nn1 [AB1289, N-(2-(4-((4-(2-acetyl-5-fluoro-1H-indol-3-yl)-1H-1,2,3-triazol-1-yl)methyl)piperidin-1-yl)ethyl)-4-(2-fluoropyridin-3-yl)benzenesulfonamide] | 6.36
24 | CCC(C)c1ccc(S(=O)(=O)NCCN2CCC(Cn3cc(-c4c(C(=O)OCC(C)C)[nH]c5ccc(F)cc45)nn3)CC2)cc1 (centres unmarked) [AB931, isobutyl 3-(1-((1-(2-((4-(sec-butyl)phenyl)sulfonamido)ethyl)piperidin-4-yl)methyl)-1H-1,2,3-triazol-4-yl)-5-fluoro-1H-indole-2-carboxylate] | 7.00
25 | CCC(=O)c1[nH]c2ccc(F)cc2c1-c1cn(CC2CCN(CCNS(=O)(=O)Cc3ccc(C(F)(F)F)cc3)CC2)nn1 [AB1417, N-(2-(4-((4-(5-fluoro-2-propionyl-1H-indol-3-yl)-1H-1,2,3-triazol-1-yl)methyl)piperidin-1-yl)ethyl)-1-(4-(trifluoromethyl)phenyl)methanesulfonamide] | 6.92
26 | CC(C)COC(=O)c1[nH]c2ccc(F)cc2c1-c1cn(CC2CCN(CCNS(=O)(=O)c3ccc(-c4ccccc4CN4CCOCC4)cc3)CC2)nn1 [AB1075] | 7.10
27 | CC(=O)c1[nH]c2ccc(F)cc2c1-c1cn(CC2CCN(CCNS(=O)(=O)N3CCC(c4c(F)cccc4F)CC3)CC2)nn1 [AB1316, N-(2-(4-((4-(2-acetyl-5-fluoro-1H-indol-3-yl)-1H-1,2,3-triazol-1-yl)methyl)piperidin-1-yl)ethyl)-4-(2,6-difluorophenyl)piperidine-1-sulfonamide] | 6.55
28 | CC(C)COC(=O)c1[nH]c2ccc(F)cc2c1-c1cn(CC2CCN(CCNS(=O)(=O)Cc3cccc(Br)c3)CC2)nn1 [AB1031, isobutyl 3-(1-((1-(2-(((3-bromophenyl)methyl)sulfonamido)ethyl)piperidin-4-yl)methyl)-1H-1,2,3-triazol-4-yl)-5-fluoro-1H-indole-2-carboxylate] | 6.82
